These results are taken from ChEMBL document CHEMBL1156972, “Discovery of 2-ureidophenyltriazines bearing bridged morpholines as potent and selective ATP-competitive mTOR inhibitors” (Bioorg Med Chem Lett, 2010).

Assay [1] concerns the target Serine/threonine-protein kinase mTOR (Rattus norvegicus, UniProt P42346). Description: Inhibition of rat brain mTOR assessed as p70S6K-GST protein phosphorylation after 30 mins by ELISA. Background: An ELISA detects its analyte on a solid surface through an enzyme-linked reagent.
The nature of assay [2]: Inhibition of PI3K assessed as PIP3 level after 20 mins by HTRF assay. On the technique in general: TR-FRET usually uses a lanthanide donor and a delayed reading to cut background.
A short description of assay [3]: Selectivity ratio of IC50 for PI3K to IC50 for rat brain mTOR.
In another assay the test system is LNCaP. Description: Antiproliferative activity against human LNCAP cells after 3 days by MTS assay. In kind it is functional, cell-based. To be noted: 72 h. (Tetrazolium assays rely on reduction of a dye to a coloured formazan, in cell work by metabolically active cells.)
The test system of assay [4] is U-87MG ATCC. Description: Antitumor activity against human U87MG cells xenografted in nude mouse assessed as reduction in tumor volume at 12.5 to 25 mg/kg, po QD for 5 days measured after 9 days. In kind it is functional, organism-based.
Assay [5] can be described thus: Antitumor activity against human U87MG cells xenografted in nude mouse assessed as reduction in tumor volume at 5 mg/kg, iv QD for 5 days measured after 9 days relative to control. More on the design: scale not given: the % may be the effect or the level left. In kind it is functional, U-87MG ATCC.
The subject of a further assay is MDA361. Description: Inhibition of PI3K in human MDA361 cells assessed as suppression of P-AKT T308 level at 0.0125 to 10 uM by immunoblotting. In kind it is cell-based.
In assay [6] the test system is Mus musculus. Description: Inhibition of mTOR in human MDA361 cells xenografted in nude mouse assessed as suppression of TORC1 level at 10 mg/kg, iv after 8 hrs by immunoblotting. In kind it is functional, organism-based. Also noted: dose 10 mg/kg.
Assay [7] deals with Mus musculus. In words: Inhibition of mTOR in human MDA361 cells xenografted in nude mouse assessed as suppression of TORC2 level at 10 mg/kg, iv after 8 hrs by immunoblotting. In kind it is functional, organism-based. Also noted: dose 10 mg/kg.
Assay [8] has as its system Mus musculus. In words: Inhibition of PI3K signalling in human MDA361 cells xenografted in nude mouse assessed as suppression of PI3K/PDK1 level at 10 mg/kg, iv after 8 hrs by immunoblotting. In kind it is functional, organism-based. More on the design: dose 10 mg/kg.
In assay [9] the test system is Mus musculus. In words: Inhibition of mTOR in human MDA361 cells xenografted in nude mouse assessed as suppression of TORC1 level at 25 mg/kg, iv after 8 hrs by immunoblotting. In kind it is functional, organism-based. Also noted: dose 25 mg/kg.
Assay [10] deals with Mus musculus. Description: Inhibition of mTOR in human MDA361 cells xenografted in nude mouse assessed as suppression of TORC2 level at 25 mg/kg, iv after 8 hrs by immunoblotting. In kind it is functional, organism-based. More on the design: dose 25 mg/kg.
Assay [11] relates to Mus musculus. Description: Inhibition of PI3K signalling in human MDA361 cells xenografted in nude mouse assessed as suppression of PI3K/PDK1 level at 25 mg/kg, iv after 8 hrs by immunoblotting. Also noted: dose 25 mg/kg. In kind it is functional, organism-based.
The test system of assay [12] is U-87MG ATCC. Description: Antitumor activity against human U87MG cells xenografted in nude mouse assessed as reduction in tumor volume at 5 to 15 mg/kg, po QD for 5 days measured up to 10 days. In kind it is functional, organism-based.
Assay [13] in a line: Antitumor activity against human U87MG cells xenografted in nude mouse assessed as reduction in tumor volume at 10 mg/kg, po QD for 5 days measured after 8 days relative to control. Also noted: scale not given: the % may be the effect or the level left. In kind it is functional, U-87MG ATCC.

Calls of active or inactive are those of the source. The rule behind the calls is not given here.

Regarding `CNC(=O)Nc1ccc(-c2nc(N3CC4CCC(C3)O4)nc(N3CC4CCC(C3)O4)n2)cc1`, the IC50 in assay [1] came to 2.5 nM; in assay [2], 680 nM; in the assay on LNCaP it was 190 nM. Moreover, the Ratio IC50 in [3] turned out to be 272.

As to `CN1CCN(c2ccc(NC(=O)Nc3ccc(-c4nc(N5C6CCC5COC6)nc(N5C6CCC5COC6)n4)cc3)cc2)CC1`, in the assay with U-87MG ATCC [4], the result was Active. The Activity in [5] is given as 31%. The inhibition entry in the assay on MDA361, with Mus musculus [6], in the assay with Mus musculus [7], with Mus musculus [9], in the assay with Mus musculus [10] and in the assay on Mus musculus [11] was “Active” in each case. Further, the inhibition result with Mus musculus [8] was “inactive”.

As for `O=C(Nc1ccncc1)Nc1ccc(-c2nc(N3CC4CCC(C3)O4)nc(N3CC4CCC(C3)O4)n2)cc1`, the figures for the concentration for half-maximal inhibition (IC50) (in assay [1]; in [2]; with LNCaP) were 0.5 nM, 142 nM and 45 nM, respectively. Besides, the Ratio IC50 in [3] came out at 282.

On to `FC(F)c1nc2ccccc2n1-c1nc(N2CC3CCC(C2)O3)nc(N2CC3CCC(C2)O3)n1`, for which the results for the IC50 (in [1]; in [2]; with LNCaP) were 44 nM, 124 nM and 680 nM, respectively. Moreover, the Ratio IC50 in [3] stood at 2.8.

As for `FC(F)c1nc2ccccc2n1-c1nc(N2CCOCC2)nc(N2CCOCC2)n1` [ZSTK-474], the half-maximal inhibitory concentration (IC50) in [1] is 45 nM; with LNCaP, 210 nM.

`CN1CCN(c2ccc(NC(=O)Nc3ccc(-c4nc(N5C[C@H]6C[C@@H]5CO6)nc(N5C[C@H]6C[C@@H]5CO6)n4)cc3)cc2)CC1`: the IC50 in assay [1] is 130 nM; in assay [2], 1820 nM; in the assay on LNCaP, 550 nM. The Ratio IC50 in assay [3] was found to be 14.

`CCNC(=O)Nc1ccc(-c2nc(N3CC4CCC(C3)O4)nc(N3CC4CCC(C3)O4)n2)cc1`: the concentration for half-maximal inhibition (IC50) was 2.8 nM in assay [1], 2690 nM in [2] and 180 nM in the assay with LNCaP. In addition, in [3], the Ratio IC50 turned out to be 961.

In the case of `CN1CCN(c2ccc(NC(=O)Nc3ccc(-c4nc(N5CC6CCC(C5)O6)nc(N5CC6CCC(C5)O6)n4)cc3)cc2)CC1`, the IC50 in assay [1] came out at 1.7 nM; in assay [2], 87 nM; with LNCaP, 2.3 nM. Moreover, the Ratio IC50 in [3] was 51. In addition, the outcome with U-87MG ATCC [12] was Active. Besides, the Activity in assay [13] is recorded as 44%.

As to `FC(F)c1nc2ccccc2n1-c1nc(N2CCOCC2)nc(N2CC3CCC(C2)O3)n1`, the half-inhibitory concentration (IC50) turned out to be 60 nM in assay [1], 24 nM in assay [2] and 180 nM in the assay with LNCaP. The Ratio IC50 in [3] stood at 0.41.

`O=C(Nc1ccc(-c2nc(N3CC4CCC(C3)O4)nc(N3CC4CCC(C3)O4)n2)cc1)NC1CC1`: the IC50 in [1] was found to be 2.6 nM; in assay [2], 2120 nM; in the assay on LNCaP, 90 nM. Moreover, in assay [3], the Ratio IC50 worked out at 802.

For the compound `CN1CCN(c2ccc(NC(=O)Nc3ccc(-c4nc(N5C[C@@H]6C[C@H]5CO6)nc(N5C[C@@H]6C[C@H]5CO6)n4)cc3)cc2)CC1`, the IC50 turned out to be 35 nM in assay [1] and 3440 nM in assay [2]. Besides, in [3], the Ratio IC50 worked out at 98.

As to `CN1CCN(c2ccc(NC(=O)Nc3ccc(-c4nc(N5CC6CCC(C5)O6)nc(N5C6CCC5COC6)n4)cc3)cc2)CC1`, the IC50 in assay [1] is 2 nM; in [2] it was 150 nM; in the assay with LNCaP, below 0.8 nM. Further, the Ratio IC50 in [3] was determined as 75.

Usually IC50 stands for the concentration that gives 50% inhibition.
